≈ marks a conversion by molar mass, not a printed value.
Key:
Type in all cases: physicochemical
[1] = particle size / morphology of crystalline forms; details: morphology comparison of crystalline forms
[2] = water solubility of crystalline forms of tafamidis
[3] = stability to suspension (slurry) in PEG 400 at room temperature, analysed by XRPD; details: slurry in PEG 400, room temperature, XRPD (FIG. 6)
Method: 50 mg of samples of Form Va and Form 4 were placed into glass vials. 1 ml of PEG 400 was added at room temperature. The slurries were each mixed using a magnetic stirrer. The resulting samples were analysed by XRPD after 2 hours and after 7 days.

particle size [1] | water solubility [2] [µg/mL] | time for which the form is stable in PEG 400 slurry [3] | solubility [2] [µg/mL] | SMILES
up to 100 μm | – | – | – | O=C(O)c1ccc2nc(-c3cc(Cl)cc(Cl)c3)oc2c1 [Form 1, 2-(3,5-dichlorophenyl)-1,3-benzoxazole-6-carboxylic acid]
> 100 μm | – | – | – | O=C(O)c1ccc2nc(-c3cc(Cl)cc(Cl)c3)oc2c1 [Form 6, 2-(3,5-dichlorophenyl)-1,3-benzoxazole-6-carboxylic acid]
– | 1.47 (≈ 4.77 µM) | – | – | O=C(O)c1ccc2nc(-c3cc(Cl)cc(Cl)c3)oc2c1 [Form V, 2-(3,5-dichlorophenyl)-1,3-benzoxazole-6-carboxylic acid]
5-10 μm | – | at least 7 days | 2.21 (≈ 7.17 µM) | O=C(O)c1ccc2nc(-c3cc(Cl)cc(Cl)c3)oc2c1 [Form Va, 2-(3,5-dichlorophenyl)-1,3-benzoxazole-6-carboxylic acid]

Source: patent US20250042864A1, “SOLID STATE FORM OF TAFAMIDIS” (TEVA PHARMACEUTICALS INTERNATIONAL GMBH, priority 2021, published 2025)
